From PubChem BioAssay AID256 (DTP/NCI, 2004)
Where “and” joins values, the source holds several entries; their conditions need not be identical. Identical values can stand only once. Toxic doses and inconclusive results are not listed. How the source made its calls: active means survival T/C of 150% or more; inactive means T/C below 125% in these data.

Tested on: CD2F1 mice, L1210 leukemia ip, survival T/C
Test: NCI In Vivo Anticancer Drug Screen. Data for tumor model L1210 Leukemia (intraperitoneal) in CD2F1 (CDF1) mice
Settings: higher = longer survival
Method in brief: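 Implant tumor; dose compound or vehicle; measure endpoint in both groups; report treated divided by control.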

[1] = endpoint: mean survival time, dose: 50.0 mg/kg/injection, schedule: Q01DX009 (ip), vehicle: saline
[2] = endpoint: mean survival time, dose: 100.0 mg/kg/injection, schedule: Q01DX009 (ip), vehicle: saline
[3] = endpoint: mean survival time, dose: 200.0 mg/kg/injection, schedule: Q01DX009 (ip), vehicle: saline
[4] = endpoint: mean survival time, dose: 100.0 mg/kg/injection, schedule: Q01DX009 (ip), vehicle: saline with Tween-80
[5] = endpoint: mean survival time, dose: 100.0 mg/kg/injection, schedule: Q04DX003 (ip), vehicle: saline with Tween-80
[6] = endpoint: mean survival time, dose: 200.0 mg/kg/injection, schedule: Q01DX009 (ip), vehicle: saline with Tween-80
[7] = endpoint: mean survival time, dose: 200.0 mg/kg/injection, schedule: Q04DX003 (ip), vehicle: saline with Tween-80
[8] = endpoint: mean survival time, dose: 400.0 mg/kg/injection, schedule: Q01DX009 (ip), vehicle: saline with Tween-80
[9] = endpoint: mean survival time, dose: 400.0 mg/kg/injection, schedule: Q04DX003 (ip), vehicle: saline with Tween-80
[10] = endpoint: mean survival time, dose: 5.0 mg/kg/injection, schedule: Q01DX001 (ip), vehicle: saline
[11] = endpoint: mean survival time, dose: 10.0 mg/kg/injection, schedule: Q01DX001 (ip), vehicle: saline
[12] = endpoint: mean survival time, dose: 200.0 mg/kg/injection, schedule: Q01DX009 (ip), vehicle: Klucel (hydroxypropylcellulose) (HPC)

Measured: T/C

CC1(C)N=C(N)N=C(N)N1c1ccc(OCC(=O)Nc2ccc(S(=O)(=O)F)cc2)cc1
inactive: [1] 111 % of control | [2] 109 % of control | [3] 115 % of control | endpoint: mean survival time, dose: 300.0 mg/kg/injection, schedule: Q01DX009 (ip), vehicle: saline 115 % of control | endpoint: mean survival time, dose: 400.0 mg/kg/injection, schedule: Q01DX009 (ip), vehicle: saline 121 % of control

CC(CC(O)(c1ccccc1)c1ccccc1)C(F)(F)F (stereo not drawn)
inactive: [4] 100 % of control | [5] 94 % of control | [6] 95 % of control | [7] 96 % of control | [8] 98 % of control | [9] 97 % of control

Cn1ccc(CON)n1
inactive: [2] 94 % of control | [3] 93 % of control

CCCNC1=C(C)C(=O)C2=C(C1=O)[C@H](COC(N)=O)[C@]1(OC)[C@@H]3N[C@@H]3CN21
active: endpoint: median survival time, dose: 6.25 mg/kg/injection, schedule: Q01DX009 (ip), vehicle: saline 166 % of control
inactive: endpoint: mean survival time, dose: 10.2 mg/kg/injection, schedule: Q01DX001 (ip), vehicle: saline 108 % of control | endpoint: mean survival time, dose: 15.5 mg/kg/injection, schedule: Q01DX001 (ip), vehicle: saline 112 % of control | endpoint: mean survival time, dose: 23.2 mg/kg/injection, schedule: Q01DX001 (ip), vehicle: saline 120 % of control | endpoint: median survival time, dose: 0.39 mg/kg/injection, schedule: Q01DX009 (ip), vehicle: suspension in saline 93 % of control | endpoint: median survival time, dose: 0.78 mg/kg/injection, schedule: Q01DX009 (ip), vehicle: saline 112 % of control | endpoint: median survival time, dose: 0.78 mg/kg/injection, schedule: Q01DX009 (ip), vehicle: suspension in saline 93 % of control | endpoint: median survival time, dose: 1.56 mg/kg/injection, schedule: Q01DX009 (ip), vehicle: saline 117 % of control | endpoint: median survival time, dose: 1.56 mg/kg/injection, schedule: Q01DX009 (ip), vehicle: suspension in saline 102 % of control | endpoint: median survival time, dose: 3.12 mg/kg/injection, schedule: Q01DX009 (ip), vehicle: suspension in saline 102 % of control | endpoint: median survival time, dose: 6.25 mg/kg/injection, schedule: Q01DX009 (ip), vehicle: suspension in saline 104 % of control | endpoint: median survival time, dose: 12.5 mg/kg/injection, schedule: Q01DX009 (ip), vehicle: saline 100 % of control | endpoint: median survival time, dose: 12.5 mg/kg/injection, schedule: Q01DX009 (ip), vehicle: suspension in saline 112 % of control

O=CO.[Cu+2]
inactive: [10] 90 % of control | [11] 98 % of control

CSc1nc(NC2OCC(O)C(O)C2O)c(C(C)=O)c(=O)n1C (stereo not drawn)
inactive: endpoint: median survival time, dose: 12.5 mg/kg/injection, schedule: Q01DX005 (ip), vehicle: saline with Tween-80 97 % of control | endpoint: median survival time, dose: 25.0 mg/kg/injection, schedule: Q01DX005 (ip), vehicle: saline with Tween-80 98 % of control | endpoint: median survival time, dose: 50.0 mg/kg/injection, schedule: Q01DX005 (ip), vehicle: saline with Tween-80 96 % of control | endpoint: median survival time, dose: 100.0 mg/kg/injection, schedule: Q01DX005 (ip), vehicle: saline with Tween-80 89 % of control | endpoint: median survival time, dose: 200.0 mg/kg/injection, schedule: Q01DX005 (ip), vehicle: saline with Tween-80 94 % of control

CC1(C)N=C(N)N=C(N)N1c1ccc(OCCOc2ccc(S(=O)(=O)F)cc2)c(Cl)c1
inactive: endpoint: mean survival time, dose: 25.0 mg/kg/injection, schedule: Q04DX003 (ip), vehicle: saline with Tween-80 114 % of control | [5] 120 % of control

CCOC(=O)C(C)(C(=O)OCC)n1cnc2c1c(=O)n(C)c(=O)n2C
inactive: endpoint: mean survival time, dose: 100.0 mg/kg/injection, schedule: Q01DX005 (ip), vehicle: distilled water + Tween-80 100 % of control | endpoint: mean survival time, dose: 200.0 mg/kg/injection, schedule: Q01DX005 (ip), vehicle: distilled water + Tween-80 102 % of control | endpoint: mean survival time, dose: 400.0 mg/kg/injection, schedule: Q01DX005 (ip), vehicle: distilled water + Tween-80 107 % of control

OCC1OC(n2ccc3c(NO)ncnc32)C(O)C1O (stereo not drawn)
inactive: [10] 111 % of control | [11] 118 % of control

O=C1OC(c2ccccc2)(c2ccccc2)Cc2ccccc21
inactive: [4] 98 % of control | [6] 102 % of control | [8] 102 % of control

Cc1cc(OC(=S)N(C)C)c(S(=O)(=O)F)cc1Cl
inactive: endpoint: mean survival time, dose: 100.0 mg/kg/injection, schedule: Q04DX002 (ip), vehicle: saline with Tween-80 95 % of control | endpoint: mean survival time, dose: 200.0 mg/kg/injection, schedule: Q04DX002 (ip), vehicle: saline with Tween-80 98 % of control | endpoint: mean survival time, dose: 400.0 mg/kg/injection, schedule: Q04DX002 (ip), vehicle: saline with Tween-80 95 % of control

Cc1c(O)c2c(c(O)c1Cc1ccc(CN)cc1)C(=O)c1ccccc1C2=O
inactive: endpoint: mean survival time, dose: 1.56 mg/kg/injection, schedule: Q01DX009 (ip), vehicle: water 103 % of control | endpoint: mean survival time, dose: 3.13 mg/kg/injection, schedule: Q01DX009 (ip), vehicle: water 101 % of control | endpoint: mean survival time, dose: 6.25 mg/kg/injection, schedule: Q01DX009 (ip), vehicle: water 95 % of control | endpoint: mean survival time, dose: 12.5 mg/kg/injection, schedule: Q01DX009 (ip), vehicle: water 103 % of control | endpoint: mean survival time, dose: 25.0 mg/kg/injection, schedule: Q01DX009 (ip), vehicle: water 87 % of control

O=C(Nc1ccc(F)c(Cl)c1)Oc1ccc(OCc2ccccc2)cc1
inactive: endpoint: mean survival time, dose: 50.0 mg/kg/injection, schedule: Q01DX009 (ip), vehicle: Klucel (hydroxypropylcellulose) (HPC) 87 % of control | endpoint: mean survival time, dose: 100.0 mg/kg/injection, schedule: Q01DX009 (ip), vehicle: Klucel (hydroxypropylcellulose) (HPC) 98 % of control | [12] 93 % of control

Cc1ccc(Cl)cc1NC(=O)CCl
inactive: endpoint: mean survival time, dose: 25.0 mg/kg/injection, schedule: Q01DX009 (ip), vehicle: saline with Tween-80 94 % of control | endpoint: mean survival time, dose: 50.0 mg/kg/injection, schedule: Q01DX009 (ip), vehicle: saline with Tween-80 94 % of control | [4] 89 % of control and 96 % of control | [5] 101 % of control | [7] 95 % of control | [9] 97 % of control

NNc1ncn[nH]1
inactive: endpoint: mean survival time, dose: 25.0 mg/kg/injection, schedule: Q01DX001 (ip), vehicle: saline with Tween-80 98 % of control | endpoint: mean survival time, dose: 50.0 mg/kg/injection, schedule: Q01DX001 (ip), vehicle: saline with Tween-80 101 % of control

Cn1nc(N)c2ncc(-c3ccc(Cl)cc3)nc21
inactive: endpoint: mean survival time, dose: 100.0 mg/kg/injection, schedule: Q04DX003 (ip), vehicle: alcohol 91 % of control | endpoint: mean survival time, dose: 200.0 mg/kg/injection, schedule: Q04DX003 (ip), vehicle: alcohol 89 % of control | endpoint: mean survival time, dose: 400.0 mg/kg/injection, schedule: Q04DX003 (ip), vehicle: alcohol 91 % of control

O=C1NC(=O)C(c2ccccc2)(C2CCCC2)N1 (stereo not drawn)
inactive: endpoint: mean survival time, dose: 50.0 mg/kg/injection, schedule: Q04DX003 (ip), vehicle: Klucel (hydroxypropylcellulose) (HPC) 104 % of control | endpoint: mean survival time, dose: 100.0 mg/kg/injection, schedule: Q04DX003 (ip), vehicle: Klucel (hydroxypropylcellulose) (HPC) 98 % of control | endpoint: mean survival time, dose: 200.0 mg/kg/injection, schedule: Q04DX003 (ip), vehicle: Klucel (hydroxypropylcellulose) (HPC) 95 % of control

CCSC(CC(OC(C)=O)C(OC(C)=O)C(COC(C)=O)OC(C)=O)n1cnc2c(Cl)ncnc21 (stereo not drawn)
inactive: endpoint: mean survival time, dose: 12.5 mg/kg/injection, schedule: Q01DX005 (ip), vehicle: other 98 % of control | endpoint: mean survival time, dose: 25.0 mg/kg/injection, schedule: Q01DX005 (ip), vehicle: other 96 % of control | endpoint: mean survival time, dose: 50.0 mg/kg/injection, schedule: Q01DX005 (ip), vehicle: other 95 % of control | endpoint: mean survival time, dose: 100.0 mg/kg/injection, schedule: Q01DX005 (ip), vehicle: other 104 % of control | endpoint: mean survival time, dose: 200.0 mg/kg/injection, schedule: Q01DX005 (ip), vehicle: other 105 % of control

CCOP(=O)(OCC)C(c1ccccc1)(c1ccccc1)c1ccccc1
inactive: endpoint: mean survival time, dose: 100.0 mg/kg/injection, schedule: Q01DX001 (ip), vehicle: Klucel (hydroxypropylcellulose) (HPC) 103 % of control | endpoint: mean survival time, dose: 200.0 mg/kg/injection, schedule: Q01DX001 (ip), vehicle: Klucel (hydroxypropylcellulose) (HPC) 96 % of control | endpoint: mean survival time, dose: 400.0 mg/kg/injection, schedule: Q01DX001 (ip), vehicle: Klucel (hydroxypropylcellulose) (HPC) 102 % of control

Nc1ncn[nH]1
inactive: [12] 95 % of control | endpoint: mean survival time, dose: 400.0 mg/kg/injection, schedule: Q01DX009 (ip), vehicle: Klucel (hydroxypropylcellulose) (HPC) 106 % of control

Nc1c[n+]([O-])cc2ccccc12
inactive: [5] 94 % of control | [7] 94 % of control

CCN(CC)CCSC(=O)c1ccccc1
inactive: [1] 103 % of control | [2] 103 % of control

O=C(Nc1ccccc1)c1ccccc1C1(O)c2ccccc2-c2ccccc21
inactive: [4] 88 % of control | [6] 92 % of control | [8] 91 % of control

CNC(=O)ON(C(C)=O)C(=O)NC
inactive: endpoint: mean survival time, dose: 12.5 mg/kg/injection, schedule: Q01DX009 (ip), vehicle: saline 100 % of control and 107 % of control | endpoint: mean survival time, dose: 25.0 mg/kg/injection, schedule: Q01DX009 (ip), vehicle: saline 107 % of control and 109 % of control | [1] 114 % of control and 109 % of control
